Tests used:
Assay type in all cases: in vivo, human
[1] = Safety of topical ocular reproxalap across clinical trials
Description: • Day 1 Schirmer's Test results is based on improvement after a single dose; all other Day 1 assessments were performed over 24 hours of QID dosing.

[2] = tested on: malondialdehyde (MDA) adducts in tears; experiment: MDA adduct competitive ELISA of tears, Phase 2a clinical study; details: 28 days / 4-week treatment, all treatment groups pooled
Source text: The study was to assess levels of malondialdehyde (MDA) adducts in tears collected from subjects with dry eye disease enrolled in a Phase 2a, randomized, double-masked, clinical study to assess the safety, tolerability, and pharmacodynamic activity of ADX-102 ophthalmic solution in subjects with dry eye diseases, also referred to herein as dry eye syndrome (DES).
Tears were collected during Visit 1, prior to treatment, and during Visit 3, following four weeks of treatment. Treatment groups consisted of ADX-102 Ophthalmic Solution (0.5%), ADX-102 Ophthalmic Solution (0.1%), and ADX-102 Ophthalmic Lipid Solution (0.5%). […]
The assay is a competitive ELISA. […] The plate is read in a microplate reader at 450 nm. The assay OD reading decreases with increasing MDA adducts in the samples, as the adsorbed MDA competes for binding to the MDA antibody with MDA adducts in the test sample. […]
DES Study Samples. Based on the results of the pilot assay, a 1:60 dilution was determined to maximize the likelihood of the OD values falling within the linear portion of the standard curve, and thus provide the most accurate results. All tear samples from subjects (0.5% ADX-102 Ophthalmic Solution) and (0.1% ADX-102 Ophthalmic Solution) were analyzed, but results from some tear samples were excluded from the data analysis due to contamination with ocular staining dye in the Visit 3 samples. […]

[3] = tested on: subjects with dry eye disease; experiment: CAE clinical study, initial cohort, Day 2 dry eye chamber
Description: The objective of the study is to evaluate the efficacy of reproxalap, as assessed by tear reactive aldehyde species (RASP) levels, after single and multiple doses in subjects with dry eye disease. The efficacy of reproxalap will also be assessed by tear RASP levels, conjunctival redness, Schirmer's Test, and dry eye symptoms after dosing immediately prior to and during exposure to the Controlled Adverse Environment (CAE®) over 2 hours, in subjects with dry eye disease. CAE® chambers allow standardization of variables, such as temperature, humidity, airflow, and visual tasking (see Calonge et al., Current Eye Res., 2018, 43(4):445-450; see also Ousler, III et al., Ophthalmol Ther., 2017, 6(2): 263-276) Dosage/Dose Regimen. A Reproxalap solution (0.25% w/v or 0.1% w/v) is administered topically to both eyes. The control is a Vehicle Control Solution. The test article is administered QID on Day 1 (Visit 2). On Day 2 (Visit 3), test article is administered once 2 or 5 minutes immediately prior to the CAE®, once 45 minutes after initiation of the CAE®, and once at CAE® exit. The primary endpoint is the change in levels of reactive aldehyde species (RASP) in tears. Secondary endpoints include the following: • Visual analog scale eye dryness score assessed over 90 minutes in CAE®. • Ora Calibra Ocular Discomfort Scale assessed over 90 minutes in CAE®. • Conjunctival redness assessed at over 90 minutes via digital photography in the CAE® (Key Secondary Sign Endpoint). • Schirmer's Test assessed 10 minutes after dosing. • Post-CAE® RASP change from baseline. Secondary endpoints of conjunctival redness and symptoms in the CAE® is assessed via mixed effect model for repeated measures (MMRM), with baseline score as a covariate, and time and test article group as factors. In one of the CAE® studies, one dose is given 2 min prior to chamber entry. Another dose is administered 45 min after chamber entry. In some instances, subjects receive one day prior to chamber entry. Thus, some subjects receive: one dose on day prior to, one dose immediately before, and one dose 45 min after entry into a 90 min dry eye chamber with minimal humidity, high airflow, and forced visual tasking. In some instances, the subjects are given a dose at exit of the CAE®.

[4] = tested on: subjects with dry eye disease; experiment: CAE clinical study, initial cohort, Day 1 dry eye assessments; details: N = 12; for Schirmer's Test, Change From Baseline: Day 1, after a single dose, vehicle +1.3, P-Value 0.30; for OD4S: Dryness (0-5), Change From Baseline / OD4S: Grittiness (0-5), Change From Baseline: vehicle +0.1, P-Value 0.006; for OD4S: Discomfort (0-5), Change From Baseline / VAS Dryness (0-100), Change From Baseline: P-Value 0.003; for VAS Dryness (0-100), Change From Baseline: vehicle +2
Description: The objective of the study is to evaluate the efficacy of reproxalap, as assessed by tear reactive aldehyde species (RASP) levels, after single and multiple doses in subjects with dry eye disease. The efficacy of reproxalap will also be assessed by tear RASP levels, conjunctival redness, Schirmer's Test, and dry eye symptoms after dosing immediately prior to and during exposure to the Controlled Adverse Environment (CAE®) over 2 hours, in subjects with dry eye disease. CAE® chambers allow standardization of variables, such as temperature, humidity, airflow, and visual tasking (see Calonge et al., Current Eye Res., 2018, 43(4):445-450; see also Ousler, III et al., Ophthalmol Ther., 2017, 6(2): 263-276) Dosage/Dose Regimen. A Reproxalap solution (0.25% w/v or 0.1% w/v) is administered topically to both eyes. The control is a Vehicle Control Solution. The test article is administered QID on Day 1 (Visit 2). On Day 2 (Visit 3), test article is administered once 2 or 5 minutes immediately prior to the CAE®, once 45 minutes after initiation of the CAE®, and once at CAE® exit. The primary endpoint is the change in levels of reactive aldehyde species (RASP) in tears. Secondary endpoints include the following: • Visual analog scale eye dryness score assessed over 90 minutes in CAE®. • Ora Calibra Ocular Discomfort Scale assessed over 90 minutes in CAE®. • Conjunctival redness assessed at over 90 minutes via digital photography in the CAE® (Key Secondary Sign Endpoint). • Schirmer's Test assessed 10 minutes after dosing. • Post-CAE® RASP change from baseline. General Statistical Methods and Types of Analyses. The primary endpoint and secondary endpoints of Schirmer's Test and post-CAE® RASP is assessed via analysis of covariance (ANCOVA), with baseline score as a covariate. Initial Cohort of the trial will enroll twenty subject who meet the inclusion criteria. The Initial Cohort phase will be limited to Visit 1 (Screening), Visit 2 (Day 1), and Visit 3 (Day 2). At Day 1, evaluations include Dry Eye symptoms, Schirmer's test, and tear RASP levels. At Day 2 (Chamber test), evaluations include Dry Eye symptoms, Ocular Redness, and tear RASP levels. • Day 1 Schirmer's Test results is based on improvement after a single dose; all other Day 1 assessments were performed over 24 hours of QID dosing.

[5] = Day 1, over 24 hours of QID dosing
[6] = Day 1, over 24 hours of QID dosing, listed as reproxalap

Structure (SMILES): CC(C)(O)c1nc2ccc(Cl)cc2cc1N [Reproxalap, reproxalap]
- most commonly reported adverse event in clinical trials ([1]; human, in vivo): mild instillation site irritation
- safety in clinical trials ([1]; studied in over 1,100 patients): no observed safety concerns
- tear MDA adduct level after treatment relative to baseline, pooled groups [2]: statistically lower
- ocular redness versus vehicle ([3]; Day 2, dry eye chamber, p=0.03): statistically significant improvement over vehicle
- ocular discomfort score versus vehicle ([3]; Day 2, over all time points in aggregate in the dry eye chamber, p<0.0001): statistically superior to vehicle
- visual analog scale (VAS) ocular dryness versus vehicle ([3]; Day 2, over all time points in aggregate in the dry eye chamber, p=0.001): statistically superior to vehicle
- time to improvement in ocular symptoms and redness following dosing ([3]; dry eye chamber): within minutes
- Schirmer's Test, Change From Baseline [4]: +3.4 mm
- Schirmer's Test, Change From Baseline ([4]; listed as reproxalap): directionally in favor of reproxalap over vehicle
- OD4S: Dryness (0-5), Change From Baseline [4, 5]: −1.2
- OD4S: Grittiness (0-5), Change From Baseline [4, 5]: −1.1
- OD4S: Dryness (0-5), Change From Baseline [4, 6]: statistically superior to vehicle
- OD4S: Grittiness (0-5), Change From Baseline [4, 6]: statistically superior to vehicle
- OD4S: Discomfort (0-5), Change From Baseline ([4]; Day 1, over 24 hours of QID dosing, vehicle +0.4): −0.7
- OD4S: Discomfort (0-5), Change From Baseline ([4]; Day 1, over 24 hours of QID dosing, vehicle +0.4, listed as reproxalap): statistically superior to vehicle
- Ocular Discomfort Scale (0-4), Change From Baseline ([4]; Day 1, over 24 hours of QID dosing, vehicle +0.4, P-Value 0.07): −0.7
- OD4S: Sting (0-5), Change From Baseline ([4]; Day 1, over 24 hours of QID dosing, vehicle +0.4, P-Value 0.23): −0.1
- OD4S: Burn (0-5), Change From Baseline ([4]; Day 1, over 24 hours of QID dosing, vehicle +0.8, P-Value 0.07): −0.1
- VAS Dryness (0-100), Change From Baseline [4, 5]: −26
- VAS Dryness (0-100), Change From Baseline [4, 6]: statistically superior to vehicle

Reference: US20220211691A1, “TREATMENT OF DRY EYE DISEASE” (Aldeyra Therapeutics, Inc., priority 2021, published 2022)
